Like-named read-outs stand apart in the source and are kept apart here.
Assays:
[1] = biological target: cellular GLS activity in PC3 cells (Homo sapiens (Human), UniProt O94925); assay: GLS Cell Potency Assay (PC3 coupled assay measuring cellular glutamate depletion); assay type: cell-based; details: PC3 cells, 6 h incubation, glutamate depletion; read-out: Assay b) GLS cell MOA Mean IC50
Description: (§1) The following assays were used to measure the effects of the compounds described herein: a) GLS Enzyme Potency Assay; b) GLS Cell Potency Assay; c) GLS Cell Proliferation Assay. During the description of the assays, generally: • i. The following abbreviations have been used: CO2=Carbon dioxide; DMEM=Dulbecco's Modified Eagle Medium; DMSO=Dimethyl sulphoxide; EDTA=Ethylenediaminetetraacetic acid; EGTA=Ethylene glycol tetraacetic acid; FCS=Foetal calf serum; h=Hour(s); NBS=Non-binding surface; SDS=Sodium dodecyl sulphate; TRIS=Tris(Hydroxymethyl)aminomethane. • ii. IC50 values were calculated using a smart fitting model in Genedata.
Assay b): GLS Cell Potency Assay
Compounds were assessed for their potential to inhibit cellular GLS activity by use of a PC3 coupled assay measuring cellular glutamate depletion. […] DMSO concentration was maintained at 0.3% by back filling with DMSO solution. PC3 cells were grown in phenol free DMEM, 10% dialyzed FCS, 2 mM glutamine and following dispersal by trypsinisation were plated at 5.6×10^3 cells per well in 40 μl of growth medium directly into the 384 well assay plates containing dispensed compound. After incubation for 6 h at 37° C., 5% CO2 growth media was aspirated and cells lysed in 15 μl of buffer containing 10 mM TRIS pH7.4, 100 mM NaCl, 1 mM EDTA, 1 mM EGTA, 1 mM NaF, 20 mM Na4P2O7, 2 mM Na3VO4, 1% Triton X-100, 10% glycerol, 0.1% SDS and 0.5% deoxycholate.

GLS1 = GLS1 (Homo sapiens (Human), UniProt O94925); assay: GLS Enzyme Potency Assay (Glutamate Oxidase/AmplexRed coupled assay); assay type: biochemical
GLS1, sequence (O94925 63-669): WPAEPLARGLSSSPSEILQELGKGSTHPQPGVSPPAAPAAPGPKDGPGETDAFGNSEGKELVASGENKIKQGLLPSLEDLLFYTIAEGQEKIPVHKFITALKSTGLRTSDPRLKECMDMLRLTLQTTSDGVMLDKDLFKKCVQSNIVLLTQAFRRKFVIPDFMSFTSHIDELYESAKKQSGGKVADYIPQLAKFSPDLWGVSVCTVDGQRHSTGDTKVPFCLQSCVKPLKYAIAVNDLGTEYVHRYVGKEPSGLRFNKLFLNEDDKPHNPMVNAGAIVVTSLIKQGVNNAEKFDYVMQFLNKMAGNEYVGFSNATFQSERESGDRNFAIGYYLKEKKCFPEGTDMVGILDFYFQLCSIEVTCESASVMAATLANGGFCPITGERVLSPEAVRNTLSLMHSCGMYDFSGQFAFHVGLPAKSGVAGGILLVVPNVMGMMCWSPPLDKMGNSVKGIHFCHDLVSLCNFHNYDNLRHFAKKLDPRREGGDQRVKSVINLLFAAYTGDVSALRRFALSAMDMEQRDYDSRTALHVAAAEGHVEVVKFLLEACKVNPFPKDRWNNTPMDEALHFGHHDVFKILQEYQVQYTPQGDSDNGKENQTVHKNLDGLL
Description: as §1
Assay a): GLS Enzyme Potency Assay
A Glutamate Oxidase/AmplexRed coupled assay was used to measure the ability of compounds to bind to and inhibit the activity of GLS1 in vitro. […] GLS1 was diluted to 2× working concentration and incubated at room temperature to allow the tetrameric/dimeric forms to reach steady state. Assay measurements were performed in buffer comprising 50 mM TRIS pH 7.8, 100 mM NaPO4, pH 7.8, 0.001% v/v Tween20. Purified recombinant GLS1 protein was diluted in assay buffer to 12 nM and pre-incubated at room temperature for 30 minutes. […] DMSO concentration was maintained at 2% by back filling with DMSO solution. 3 μL of diluted GLS1 protein (12 nM) was then dispensed into each well using a BioRaptr automated dispenser (Beckman-Coulter) and incubated for 15 minutes at room temperature. 3 μL of 100 mM glutamine diluted in assay buffer was then added and the reaction incubated at room temperature for 60 minutes. […] An artefact version of the assay where the 6His tagged GLS protein and glutamine were replaced with assay buffer was also used to rule out non specific effects on the assay components.

NCI-H1703 cells = assay: GLS Cell Proliferation Assay (NCI-H1703 cell proliferation); assay type: cell-based
Description: as §1
Assay c): GLS Cell Proliferation Assay
The ability of compounds to inhibit cell growth was measured using a 384 well plate NCI-H1703 cell proliferation assay. NCI-H1703 cells were grown in phenol red free RPMI1640, 10% FCS and 2 mM glutamine and seeded at a density of 750 cells per well in 40 μl of growth medium into clear-bottom 384 well assay plates (Corning product code 3712) and incubated for 24 h at 37° C., 5% CO2. […] DMSO concentration was maintained at 0.3% by back filling with DMSO solution. Plates were incubated for 5 days at 37° C., 5% CO2, Sytox Green and Saponin added to final concentration of 2 μM and 0.25% respectively and incubated for 6 h prior to analysis. […] IC50 values were calculated by curve fitting to max inhibition of day zero growth using GeneData software analysis.

[2] = 6His tagged GLS protein (amino acids 63-669), recombinant; read-out: Assay a) enz IC50
[3] = NCI-H1703 cells, 5 days; read-out: Assay c) Prolif Mean IC50
[4] = Homo sapiens, NCI-H1703, 120 h, NCI-H1703 cells, 5 days; read-out: Assay c) Prolif Mean IC50

cellular GLS activity in PC3 cells, sequence (O94925 73-669): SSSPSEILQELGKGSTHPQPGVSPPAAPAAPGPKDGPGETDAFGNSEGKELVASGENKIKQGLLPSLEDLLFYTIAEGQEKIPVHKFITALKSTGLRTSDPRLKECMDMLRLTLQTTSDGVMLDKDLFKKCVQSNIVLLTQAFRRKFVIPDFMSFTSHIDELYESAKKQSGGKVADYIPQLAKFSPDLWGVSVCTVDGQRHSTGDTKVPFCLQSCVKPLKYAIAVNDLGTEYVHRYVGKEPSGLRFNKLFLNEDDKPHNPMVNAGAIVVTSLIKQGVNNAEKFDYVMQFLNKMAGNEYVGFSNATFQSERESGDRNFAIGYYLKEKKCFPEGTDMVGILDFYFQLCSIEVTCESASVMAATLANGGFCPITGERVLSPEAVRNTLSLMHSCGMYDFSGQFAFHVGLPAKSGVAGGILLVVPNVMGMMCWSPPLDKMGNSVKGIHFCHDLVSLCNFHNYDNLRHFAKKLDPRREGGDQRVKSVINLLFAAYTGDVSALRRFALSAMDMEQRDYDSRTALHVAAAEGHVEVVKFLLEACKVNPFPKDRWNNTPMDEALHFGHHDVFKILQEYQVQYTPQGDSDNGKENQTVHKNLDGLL

Structure (SMILES) | IC50 [1] | IC50 (GLS1; [2]) | IC50 (NCI-H1703 cells; [3]) | IC50 (NCI-H1703 cells; [4]) | IC50 (GLS1; read-out: Assay a) enz IC50)
COC(C(=O)Nc1nnc(N[C@@H]2CCN(c3ccc(F)nn3)C2)s1)c1cccc(N2CC(F)C2)c1 (single isomer, unassigned) [Example 27] | 1.4 nM | 149 nM | 13.5 nM |  | 
CCO[C@@H](C(=O)Nc1nnc(N[C@@H]2CCN(c3cccnn3)C2)s1)c1cccc(N2CC(OC)C2)c1 [Example 22(b), (2R)-2-ethoxy-2-[3-(3-methoxyazetidin-1-yl)phenyl]-N-[5-[[(3R)-1-pyridazin-3-ylpyrrolidin-3-yl]amino]-1,3,4-thiadiazol-2-yl]acetamide] | 10.6 nM |  |  | 178 nM | 
COC(C(=O)Nc1nnc(N[C@@H]2CCN(c3nccnn3)C2)s1)c1cccc(C2COC2)c1 (single isomer, unassigned) [Example 25] | 86.1 nM | 1840 nM | 831 nM |  | 
COC[C@H](C(=O)Nc1nnc(N[C@@H]2CCN(c3ccc(C)nn3)C2)s1)c1ccccc1 (single isomer, unassigned) [45(b)] | 11.3 nM |  |  |  | 146 nM
COc1cc(OC)cc([C@@H](OC)C(=O)Nc2nnc(N[C@@H]3CCN(c4cccnn4)C3)s2)c1 [Example 21(b), (2R)-2-(3,5-Dimethoxyphenyl)-2-methoxy-N-[5-[[(3R)-1-pyridazin-3-ylpyrrolidin-3-yl]amino]-1,3,4-thiadiazol-2-yl]acetamide] | 8.85 nM | 48.2 nM |  | 59.1 nM | 
COc1cc(OC)cc(C(OC)C(=O)Nc2nnc(N[C@@H]3CCN(c4ccc(F)nn4)C3)s2)c1 (stereo partly drawn) [Example 26, 2-(3,5-dimethoxyphenyl)-N-[5-[[(3R)-1-(6-fluoropyridazin-3-yl)pyrrolidin-3-yl]amino]-1,3,4-thiadiazol-2-yl]-2-methoxy-acetamide] | 0.334 nM | 23.5 nM |  | 4.2 nM | 
CO[C@H](C(=O)Nc1nnc(N[C@@H]2CCN(c3cccnn3)C2)s1)c1cccc(N2CC(F)C2)c1 (single isomer, unassigned) [Example 1(a)] | 0.83 nM | 20.6 nM |  |  | 
COc1cc(OC)cc(C(OC)C(=O)Nc2nnc(N[C@@H]3CCN(c4cccnn4)C3)s2)c1 (stereo partly drawn) [Example 23, 2-(3,5-dimethoxyphenyl)-2-methoxy-N-[5-[[(3R)-1-pyridazin-3-ylpyrrolidin-3-yl]amino]-1,3,4-thiadiazol-2-yl]acetamide] | 8.85 nM | 48.2 nM |  | 59.1 nM | 
CO[C@H](C(=O)Nc1nnc(N[C@@H]2CCN(c3cccnn3)C2)s1)c1cccc(N2CC(F)C2)c1 (single isomer, unassigned) [Example 1(b)] | 18.4 nM |  |  |  | 72.6 nM
COC(C(=O)Nc1nnc(N[C@@H]2CCN(c3nccnn3)C2)s1)c1cccc(C2COC2)c1 (single isomer, unassigned) [Example 24] | 3.48 nM | 52.6 nM | 29.1 nM |  | 
COC(C(=O)Nc1nnc(N[C@@H]2CCN(c3ccc(F)nn3)C2)s1)c1cccc(N2CC(F)C2)c1 (single isomer, unassigned) [Example 28] | 51.5 nM | 195 nM | 262 nM |  | 
COc1cc(OC)cc([C@H](OC)C(=O)Nc2nnc(N[C@@H]3CCN(c4cccnn4)C3)s2)c1 [Example 21(a), (2S)-2-(3,5-Dimethoxyphenyl)-2-methoxy-N-[5-[[(3R)-1-pyridazin-3-ylpyrrolidin-3-yl]amino]-1,3,4-thiadiazol-2-yl]acetamide] | 0.292 nM | 20 nM |  | 2.24 nM | 

Other lines, results leading:

IC50 [1] | IC50 (GLS1; [2]) | IC50 (NCI-H1703 cells; [3]) | IC50 (NCI-H1703 cells; [4]) | IC50 (GLS1; read-out: Assay a) enz IC50) | Structure (SMILES)
8.85 nM | 48.2 nM | 59.1 nM |  |  | COc1cc(OC)cc(C(OC)C(=O)Nc2nnc(N[C@@H]3CCN(c4cccnn4)C3)s2)c1 (single isomer, unassigned) [Example 44]
0.292 nM | 20 nM | 2.24 nM |  |  | COc1cc(OC)cc(C(OC)C(=O)Nc2nnc(N[C@@H]3CCN(c4cccnn4)C3)s2)c1 (single isomer, unassigned) [Example 43]
0.404 nM | 51.1 nM | 1.96 nM |  |  | CCOC(C(=O)Nc1nnc(N[C@@H]2CCN(c3cccnn3)C2)s1)c1cccc(N2CC(F)(F)C2)c1 (single isomer, unassigned) [Example 29]
3.22 nM | 1370 nM | 37.7 nM |  |  | CCOC(C(=O)Nc1nnc(N[C@@H]2CCN(c3cccnn3)C2)s1)c1cccc(N2CC(F)(F)C2)c1 (single isomer, unassigned) [Example 30]
0.573 nM | 96.8 nM | 3.21 nM |  |  | CCOC(C(=O)Nc1nnc(N[C@@H]2CCN(c3cccnn3)C2)s1)c1cccc(N2CC(F)C2)c1 (single isomer, unassigned) [Example 31]
1.21 nM | 77 nM | 9.03 nM |  |  | COC(C(=O)Nc1nnc(N[C@@H]2CCN(c3ccc(C)nn3)C2)s1)c1cccc(N2CC(F)C2)c1 (single isomer, unassigned) [Example 35]
0.556 nM | 147 nM | 21.1 nM |  |  | COC(C(=O)Nc1nnc(N[C@@H]2CCN(c3cccnn3)C2)s1)c1ccc(F)c(N2CC(F)(F)C2)c1 (stereo partly drawn) [Example 37, 2-[3-(3,3-difluoroazetidin-1-yl)-4-fluoro-phenyl]-2-methoxy-N-[5-[[(3R)-1-pyridazin-3-ylpyrrolidin-3-yl]amino]-1,3,4-thiadiazol-2-yl]acetamide]
10.6 nM |  | 18 nM |  |  | CCOC(C(=O)Nc1nnc(N[C@@H]2CCN(c3cccnn3)C2)s1)c1cccc(N2CC(OC)C2)c1 (stereo partly drawn) [Example 34, 2-ethoxy-2-[3-(3-methoxyazetidin-1-yl)phenyl]-N-[5-[[(3R)-1-pyridazin-3-ylpyrrolidin-3-yl]amino]-1,3,4-thiadiazol-2-yl]acetamide]
21.8 nM | 612 nM | 394 nM |  |  | COC(C(=O)Nc1nnc(N[C@@H]2CCN(c3ccc(C)nn3)C2)s1)c1cccc(N2CC(F)C2)c1 (single isomer, unassigned) [Example 36]
0.405 nM | 130 nM | 5.94 nM |  |  | COC(C(=O)Nc1nnc(N[C@@H]2CCN(c3ccc(C)nn3)C2)s1)c1cccc(N2CC(F)(F)C2)c1 (stereo partly drawn) [Example 39, 2-[3-(3,3-difluoroazetidin-1-yl)phenyl]-2-methoxy-N-[5-[[(3R)-1-(6-methylpyridazin-3-yl)pyrrolidin-3-yl]amino]-1,3,4-thiadiazol-2-yl]acetamide]

Reference: patent US10323028B2, “1,3,4-thiadiazole compounds and their use in treating cancer” (AstraZeneca AB, priority 2015, dated 2019)
